According to ChEMBL document CHEMBL1201862, “PubChem BioAssay data set” (2004):
Activity calls are given as the source filed them.

Experiments:
[1] = biological target: T1, Corticotropin-releasing factor receptor 2/Corticotropin-releasing factor-binding protein (Homo sapiens, UniProt P24387+Q13324); assay: activators of CRF receptor 2 with binding protein – uHTS hits, confirmation (AID 602473); assay type: functional; settings: read-out: EC50_Mean
T1 sequence (Q13324 whole entry): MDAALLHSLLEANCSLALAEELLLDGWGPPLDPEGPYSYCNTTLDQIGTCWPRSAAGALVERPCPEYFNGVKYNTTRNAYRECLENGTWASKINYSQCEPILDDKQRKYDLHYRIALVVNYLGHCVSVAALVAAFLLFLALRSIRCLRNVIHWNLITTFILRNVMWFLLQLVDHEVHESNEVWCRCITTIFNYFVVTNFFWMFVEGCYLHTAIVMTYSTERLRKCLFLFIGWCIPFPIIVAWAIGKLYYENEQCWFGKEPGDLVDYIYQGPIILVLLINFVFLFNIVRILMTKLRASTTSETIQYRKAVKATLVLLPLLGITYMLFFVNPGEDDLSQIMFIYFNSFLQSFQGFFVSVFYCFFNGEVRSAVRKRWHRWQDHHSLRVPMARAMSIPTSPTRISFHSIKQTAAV
T1 sequence (P24387 whole entry): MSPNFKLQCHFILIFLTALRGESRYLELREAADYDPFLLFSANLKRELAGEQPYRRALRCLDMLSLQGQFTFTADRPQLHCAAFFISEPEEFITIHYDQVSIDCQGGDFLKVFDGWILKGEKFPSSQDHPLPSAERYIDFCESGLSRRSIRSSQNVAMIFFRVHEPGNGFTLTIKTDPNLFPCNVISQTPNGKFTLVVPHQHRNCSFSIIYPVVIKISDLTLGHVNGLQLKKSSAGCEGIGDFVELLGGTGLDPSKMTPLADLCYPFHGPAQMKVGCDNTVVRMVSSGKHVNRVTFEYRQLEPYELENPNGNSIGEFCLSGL

[2] = biological target: T2, Sentrin-specific protease 1 (Homo sapiens, UniProt Q9P0U3); assay: SENP1 catalytic domain blockers, concentration series – biochemical, kinetic FRET, dose response (AID 651697); assay type: functional; settings: read-out: IC50_Mean
T2 sequence (Q9P0U3 whole entry): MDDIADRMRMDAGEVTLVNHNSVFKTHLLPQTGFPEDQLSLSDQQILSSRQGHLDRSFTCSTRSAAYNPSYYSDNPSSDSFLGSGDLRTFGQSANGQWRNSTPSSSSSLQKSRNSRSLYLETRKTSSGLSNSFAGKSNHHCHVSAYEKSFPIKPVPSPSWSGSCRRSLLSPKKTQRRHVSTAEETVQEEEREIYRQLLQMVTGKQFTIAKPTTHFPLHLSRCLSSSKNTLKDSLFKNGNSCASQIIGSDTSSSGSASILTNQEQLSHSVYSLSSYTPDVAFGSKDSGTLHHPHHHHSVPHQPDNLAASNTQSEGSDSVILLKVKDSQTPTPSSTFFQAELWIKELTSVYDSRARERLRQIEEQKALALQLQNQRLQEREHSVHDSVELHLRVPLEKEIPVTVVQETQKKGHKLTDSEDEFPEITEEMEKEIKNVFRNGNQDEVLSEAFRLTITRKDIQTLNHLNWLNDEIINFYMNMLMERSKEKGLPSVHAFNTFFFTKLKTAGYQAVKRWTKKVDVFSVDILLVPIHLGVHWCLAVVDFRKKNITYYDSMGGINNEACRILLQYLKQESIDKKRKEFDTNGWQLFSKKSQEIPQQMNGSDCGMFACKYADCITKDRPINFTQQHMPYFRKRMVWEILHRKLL

[3] = biological target: T2, Sentrin-specific protease 1; assay: Dose response confirmation of small molecule inhibitors of the catalytic domain of the SUMO protease, SENP1 in a FRET assay.; assay type: functional; settings: read-out: IC50_Mean
[4] = off-target signal loss in HeLa-CEM21 co-culture – HeLa F-luc CTL cells, cherry-picked, counter-screen for HIV-1 Env fusion inhibitor project, dose response (AID 652040); assay type: functional, cell-based;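 further: potency for signal decrease marking cytotoxic or nonspecific inhibition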
HEK293 = assay: EBV LMP1 TES2 canonical NF-kB signalling blockers – cell-based, HEK293, luciferase, cherry-pick, dose response (AID 588343); assay type: functional; settings: Homo sapiens
[5] = HIV-1 AD8 envelope cell-cell fusion blockers – cherry-pick, dose response (AID 652062); assay type: functional, cell-based;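 further: luciferase signal from cell-cell fusion driven by HIV-1 clade B AD8 Env; potency is for inhibitors of fusion seen as a drop in luminescence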
cells [6] = assay type: functional, cell-based
cells [7] = assay type: functional, cell-based; remark: listed apart in the source
[8] = blockers of HIV-1 envelope-mediated cell-cell fusion – cherry-pick, dose response (AID 652057); assay type: functional, cell-based
[9] = blockers of HIV-1 ZM109 envelope-driven cell-cell fusion – HeLa effector, CEM target cells, luciferase, cherry-pick, dose response (AID 652058); assay type: functional, cell-based;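 further: luciferase signal from HIV-1 Env mediated cell-cell fusion of effector and target cells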
Beta-lactamase [10] = biological target: T3, Beta-lactamase (Pseudomonas aeruginosa, UniProt Q79MP6); assay: […] counterscreen for selective VIM-2 inhibitors: dose response biochemical high throughput screening assay to identify inhibitors of IMP-1 metallo-beta-lactamase.
T3 sequence (Q79MP6 whole entry): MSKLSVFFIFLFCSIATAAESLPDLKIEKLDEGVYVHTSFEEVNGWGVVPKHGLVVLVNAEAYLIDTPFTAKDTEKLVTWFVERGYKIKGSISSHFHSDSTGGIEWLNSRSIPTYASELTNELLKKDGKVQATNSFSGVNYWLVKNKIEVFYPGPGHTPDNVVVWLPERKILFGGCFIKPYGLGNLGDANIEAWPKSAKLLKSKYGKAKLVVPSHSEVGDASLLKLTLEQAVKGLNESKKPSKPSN

Beta-lactamase [11] = biological target: T3, Beta-lactamase; assay: inhibition of IMP-1 beta-lactamase activity – biochemical, epi-absorbance, selectivity assay for VIM-2 inhibitor project, dose response (AID 1920)
[12] = biological target: T4, Short transient receptor potential channel 4 (Mus musculus, UniProt Q9QUQ5); assay: block of DAMGO-driven TRPC4 calcium entry – cell-based, HEK293 TRPC4/mu-opioid, Fluo-4 calcium, dose response (AID 434942); assay type: functional;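 further: potency of inhibitors blocking the TRPC4 calcium response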
T4 sequence (Q9QUQ5 whole entry): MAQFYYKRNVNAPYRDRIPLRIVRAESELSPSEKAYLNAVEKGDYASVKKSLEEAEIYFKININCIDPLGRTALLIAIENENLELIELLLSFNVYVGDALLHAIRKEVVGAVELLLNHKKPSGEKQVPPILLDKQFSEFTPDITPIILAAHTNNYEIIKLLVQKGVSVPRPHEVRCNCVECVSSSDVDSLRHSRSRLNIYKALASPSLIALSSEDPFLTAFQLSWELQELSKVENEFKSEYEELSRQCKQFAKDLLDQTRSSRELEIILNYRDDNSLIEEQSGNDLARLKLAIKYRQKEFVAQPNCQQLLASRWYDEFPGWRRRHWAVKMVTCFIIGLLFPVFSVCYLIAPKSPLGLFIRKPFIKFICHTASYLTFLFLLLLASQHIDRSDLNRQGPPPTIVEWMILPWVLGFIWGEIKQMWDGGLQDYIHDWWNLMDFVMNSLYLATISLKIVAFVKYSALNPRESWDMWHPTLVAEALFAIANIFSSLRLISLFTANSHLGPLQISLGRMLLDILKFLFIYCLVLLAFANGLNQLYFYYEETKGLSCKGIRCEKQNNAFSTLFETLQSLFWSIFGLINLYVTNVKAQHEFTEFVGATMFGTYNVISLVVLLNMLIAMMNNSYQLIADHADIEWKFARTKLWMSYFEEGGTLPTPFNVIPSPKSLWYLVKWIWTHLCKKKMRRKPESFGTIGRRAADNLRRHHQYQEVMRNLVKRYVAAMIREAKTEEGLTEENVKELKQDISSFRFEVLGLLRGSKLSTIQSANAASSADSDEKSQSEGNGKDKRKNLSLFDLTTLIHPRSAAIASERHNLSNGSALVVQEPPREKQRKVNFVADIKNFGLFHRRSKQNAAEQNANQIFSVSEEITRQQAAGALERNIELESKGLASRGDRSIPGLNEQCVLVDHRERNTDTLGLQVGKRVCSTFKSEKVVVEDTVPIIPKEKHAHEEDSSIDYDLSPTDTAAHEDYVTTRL

Beta-lactamase [13] = biological target: Beta-lactamase (Salmonella choleraesuis (strain SC-B67), UniProt Q5J463); assay: Epi-absorbance-based counterscreen for selective VIM-2 inhibitors: dose response biochemical high throughput screening assay to identify inhibitors of TEM-1 serine-beta-lactamase.
Beta-lactamase (Salmonella choleraesuis (strain SC-B67), UniProt Q5J463), sequence (Q5J463 whole entry): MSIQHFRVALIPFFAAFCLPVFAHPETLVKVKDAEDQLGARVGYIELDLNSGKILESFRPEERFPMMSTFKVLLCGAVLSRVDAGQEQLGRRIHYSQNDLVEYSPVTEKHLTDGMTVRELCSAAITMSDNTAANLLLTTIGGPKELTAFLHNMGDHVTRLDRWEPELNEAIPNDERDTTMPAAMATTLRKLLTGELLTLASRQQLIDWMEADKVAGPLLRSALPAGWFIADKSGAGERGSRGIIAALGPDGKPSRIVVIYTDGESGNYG

Cysteine protease ATG4B = biological target: T5, Cysteine protease ATG4B (Homo sapiens, UniProt Q9Y4P1); assay type: functional;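 further: Fluorescence-based dose-response confirmation assay measuring inhibition of ATG4B activity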
T5 sequence (Q9Y4P1 whole entry): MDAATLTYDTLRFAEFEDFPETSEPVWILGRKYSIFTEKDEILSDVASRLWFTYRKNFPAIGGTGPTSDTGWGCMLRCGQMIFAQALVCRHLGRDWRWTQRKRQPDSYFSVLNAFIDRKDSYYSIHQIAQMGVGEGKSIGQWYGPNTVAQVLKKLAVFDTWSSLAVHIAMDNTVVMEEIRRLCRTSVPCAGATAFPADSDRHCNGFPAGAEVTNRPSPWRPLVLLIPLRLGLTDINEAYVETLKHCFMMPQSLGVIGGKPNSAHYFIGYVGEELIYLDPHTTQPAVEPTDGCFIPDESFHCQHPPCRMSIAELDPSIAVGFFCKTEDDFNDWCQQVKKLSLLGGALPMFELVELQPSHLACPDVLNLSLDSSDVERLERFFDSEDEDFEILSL

Phospholipase A2 = Phospholipase A2 (Homo sapiens, UniProt P04054); assay type: functional;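 further: confirmatory dose-response counterscreen on phospholipase A2, testing hits that came from an ultra-high-throughput screen for ATG4B inhibitors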
Phospholipase A2, sequence (P04054 whole entry): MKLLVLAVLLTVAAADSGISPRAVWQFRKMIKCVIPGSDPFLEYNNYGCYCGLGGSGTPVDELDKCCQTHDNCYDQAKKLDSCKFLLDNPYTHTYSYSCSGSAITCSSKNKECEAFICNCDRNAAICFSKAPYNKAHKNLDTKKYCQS

[14] = biological target: Fructose-bisphosphate aldolase (Mycobacterium tuberculosis, UniProt P9WQA3); assay: Fluorescence-based biochemical high throughput dose response assay for inhibitors of the fructose-bisphosphate aldolase (FBA) of M. tuberculosis.; assay type: functional
Fructose-bisphosphate aldolase, sequence (P9WQA3 whole entry): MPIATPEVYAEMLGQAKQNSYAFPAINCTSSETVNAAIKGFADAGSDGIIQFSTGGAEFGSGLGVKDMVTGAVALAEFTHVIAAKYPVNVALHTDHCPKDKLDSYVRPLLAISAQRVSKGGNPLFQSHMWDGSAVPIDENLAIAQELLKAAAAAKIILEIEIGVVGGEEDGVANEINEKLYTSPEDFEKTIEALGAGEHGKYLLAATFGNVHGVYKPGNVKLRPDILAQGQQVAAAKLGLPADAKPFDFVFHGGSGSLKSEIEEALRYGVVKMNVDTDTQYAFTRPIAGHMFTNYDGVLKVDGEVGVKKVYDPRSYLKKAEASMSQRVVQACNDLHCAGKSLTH

For `CN(C)N=C(S)Nc1ccc2nc(-c3ccccn3)c(-c3ccccn3)nc2c1`, the EC50 [1] was > 53 µM (inactive), the IC50 [2] was 14.3 µM (active) and the IC50 [3] was 9.92 µM (active).
In the case of `NC(=O)c1sc2nccc(Nc3ccccc3)c2c1N`, the AC50 [4] is reported as 2.12 µM (active), the AC50 (HEK293) is reported as 3.96 µM (active) and the AC50 [5] is reported as < 0.26 µM (active). The EC50 (cells [6]) was > 350 µM (not active), the EC50 (cells [7]) was > 350 µM (not active) and the AC50 [8] was 1.37 µM (active). For the same molecule, the AC50 [9] was 0.726 µM (active).
In the case of `O=C1Nc2cc(C(=O)NCCCN3CCOCC3)ccc2S/C1=C/c1ccccc1F`, the IC50 (Beta-lactamase [10]) is reported as > 59.6 µM (inactive), the IC50 (Beta-lactamase [11]) is reported as > 59.6 µM (inactive) and the EC50 [12] is reported as 2.66 µM (active). For the same molecule, the IC50 (Beta-lactamase [13]) was > 59.6 µM (inactive).
With `CC(C)(C)C(=O)Nc1nnc(CSCc2ccccc2F)s1` the IC50 (Beta-lactamase [10]) was > 59.6 µM (inactive), the IC50 (Cysteine protease ATG4B) was 8.86 µM (active) and the IC50 (Beta-lactamase [11]) was > 59.6 µM (inactive). The IC50 (Phospholipase A2) was 6.65 µM (active) and the IC50 (Beta-lactamase [13]) was > 59.6 µM (inactive).
In the case of `CCCC1OC23CCCCC2C(C#N)(C(=N)O3)C1(C#N)C#N` (stereo not given), the IC50 [14] is reported as > 9.99 µM (inactive).
